According to ChEMBL document CHEMBL3045353, “Identification of new limonoids from Swietenia and their biological activity against insects” (Pest Manag Sci, 2010):
In brackets after ≈: the same amount, converted by molar mass.

Columns and labels:
Heliothis virescens = experiment: Growth inhibition of neonate larvae of Heliothis virescens (tobacco budworm) at 250 mg/l after 6 days relative to control; type: functional; conditions: 144 h, read-out: GI
Manduca sexta = experiment: Growth inhibition of neonate larvae of Manduca sexta at 250 mg/l after 6 days relative to control; type: functional; conditions: 144 h, read-out: GI
Helicoverpa zea = experiment: Growth inhibition of neonate larvae of Helicoverpa zea (corn earworm)at 250 mg/l after 6 days relative to control; type: functional; conditions: 144 h, read-out: GI
Spodoptera frugiperda [1] = experiment: Antifeedant activity against fourth-instar larvae of Spodoptera frugiperda (fall armyworm) fed on compound treated savanna grass for 18 hr; type: functional, organism-based
Spodoptera frugiperda [2] = experiment: Phagostimulant activity in fourth-instar larvae of Spodoptera frugiperda (fall armyworm) fed on compound treated savanna grass for 18 hr; type: ADME, organism-based; conditions: in vivo, po

| SMILES | inhibition of growth at 250 µg/mL (Heliothis virescens) [%] | inhibition of growth at 250 µg/mL (Manduca sexta) [%] | inhibition of growth at 250 µg/mL (Helicoverpa zea) [%] | DC50 (Spodoptera frugiperda [1]) [µg/mL] | Activity (Spodoptera frugiperda [2]) |
| --- | --- | --- | --- | --- | --- |
| C/C=C(\C)OC(=O)[C@H]1C(C)(C)[C@H]([C@@H](O)C(=O)OC)[C@]2(C)C(=O)[C@@]1(O)C=C1[C@@H]3CC(=O)O[C@@H](c4ccoc4)[C@]3(C)CC[C@@H]12 [2-HYDROXYSWIETENINE] | 62.6 | 31.7 | 28.2 | 65.8 (≈ 113 µM) | – |
| COC(=O)[C@H](C(=O)Oc1ccccc1)[C@H]1C(C)(C)[C@H](C(=O)Oc2ccccc2)[C@@H]2C=C3[C@@H]4CC(=O)O[C@@H](c5ccoc5)[C@]4(C)CC[C@@H]3[C@@]1(C)C2=O [3,6-O,O-DIBENZOYL-3-DETIGLOYLISOSWIETENINE] | 18.6 | 25.7 | 49.2 | – | Toxic |
| COC(=O)[C@H](C(=O)Oc1ccccc1)[C@H]1C(C)(C)[C@H](C(=O)Oc2ccccc2)[C@@H]2CC3=C4CC(=O)O[C@@H](c5ccoc5)[C@]4(C)CC[C@@H]3[C@@]1(C)C2=O [3,6-O,O-DIBENZOYLSWIETENOLIDE] | – | – | – | 416 (≈ 599 µM) | – |
| CCOC(=O)[C@@H](C(=O)OC)[C@H]1C(C)(C)[C@H](C(=O)OCC)[C@]2(O)C=C3[C@@H]4CC(=O)O[C@@H](c5ccoc5)[C@]4(C)CC[C@@H]3[C@@]1(C)C2=O [3,6-O,O-DIPROPIONYL-3-DETIGLOYL-2-HYDROXYISOSWIETENINE] | 17.5 | 15.8 | 32.7 | 159 (≈ 259 µM) | – |
| COC(=O)[C@H](C(=O)Oc1ccccc1)[C@H]1C(C)(C)[C@H](C(=O)Oc2ccccc2)[C@]2(O)C=C3[C@@H]4CC(=O)O[C@@H](c5ccoc5)[C@]4(C)CC[C@@H]3[C@@]1(C)C2=O [3,6-O,ODIBENZOYL-3-DETIGLOYL-2-HYDROXYISOSWIETENINE] | 33.8 | 6.24 | 13.5 | 233 (≈ 328 µM) | – |
| COC(=O)[C@H](O)[C@H]1C(C)(C)[C@H](O)[C@]2(O)C=C3[C@@H]4CC(=O)O[C@@H](c5ccoc5)[C@]4(C)CC[C@@H]3[C@@]1(C)C2=O [3-DETIGLOYL-2-HYDROXYISOSWIETENINE] | 15.8 | 29.2 | 22.4 | 188 (≈ 374 µM) | – |
| COC(=O)C(O)[C@H]1C(C)(C)[C@@H](O)[C@@H]2C(=O)[C@]1(C)[C@H]1CC[C@]3(C)[C@@H](CC(=O)O[C@H]3c3ccoc3)[C@]13O[C@@H]23 (stereo partly specified) [3-DETIGLOYLISOSWIETEMAHONIN G] | 49.1 | 45.1 | 54.6 | 107 (≈ 213 µM) | – |
| COC(=O)[C@H](O)[C@H]1C(C)(C)[C@H](O)[C@@H]2C=C3[C@@H]4CC(=O)O[C@@H](c5ccoc5)[C@]4(C)CC[C@@H]3[C@@]1(C)C2=O [3-DETIGLOYLISOSWIETENINE] | 56 | 17.8 | 15.2 | 101 (≈ 208 µM) | – |
| COC(=O)COC(=O)[C@@H]1[C@@H]2CC3=C4CC(=O)O[C@@H](c5ccoc5)[C@]4(C)CC[C@@H]3[C@@](C)(C2=O)[C@@H]([C@@H](O)C(=O)OC)C1(C)C [3-O-ACETOXYACETYLSWIETENOLIDE] | 19 | 35.9 | 30.2 | 12.4 (≈ 21.1 µM) | – |
| COC(=O)[C@H](O)[C@H]1C(C)(C)[C@H](C(=O)Oc2ccccc2)[C@@H]2C=C3[C@@H]4CC(=O)O[C@@H](c5ccoc5)[C@]4(C)CC[C@@H]3[C@@]1(C)C2=O [3-O-BENZOYL-3-DETIGLOYLISOSWIETENINE] | 57.8 | 8.18 | 27.1 | 254 (≈ 430 µM) | – |
| COC(=O)[C@H](O)[C@H]1C(C)(C)[C@H](C(=O)Oc2ccccc2)[C@@H]2CC3=C4CC(=O)O[C@@H](c5ccoc5)[C@]4(C)CC[C@@H]3[C@@]1(C)C2=O [3-O-BENZOYLSWIETENOLIDE] | – | – | – | 244 (≈ 414 µM) | – |
| COC(=O)[C@H](O)[C@H]1C(C)(C)[C@H](C(=O)OC(C)C)[C@@H]2CC3=C4CC(=O)O[C@@H](c5ccoc5)[C@]4(C)CC[C@@H]3[C@@]1(C)C2=O [3-O-ISOBUTYRYLSWIETENOLIDE] | 35.1 | 45.9 | 33.1 | 0.009 (≈ 0.0162 µM) | – |
| COC(=O)[C@H](O)[C@H]1C(C)(C)[C@H](C(=O)OCC(C)C)[C@@H]2CC3=C4CC(=O)O[C@@H](c5ccoc5)[C@]4(C)CC[C@@H]3[C@@]1(C)C2=O [3-O-ISOVALERYLSWIETENOLIDE] | 54.5 | 23.7 | 26.2 | 0.19 (≈ 0.333 µM) | – |
| CCOC(=O)[C@@H]1[C@@H]2C=C3[C@@H]4CC(=O)O[C@@H](c5ccoc5)[C@]4(C)CC[C@@H]3[C@@](C)(C2=O)[C@@H]([C@@H](O)C(=O)OC)C1(C)C [3-O-PROPIONYL-3-DETIGLOYLISOSWIETENINE] | 32 | 12.5 | 13.5 | 81.9 (≈ 151 µM) | – |
| CCOC(=O)[C@@H]1[C@@H]2CC3=C4CC(=O)O[C@@H](c5ccoc5)[C@]4(C)CC[C@@H]3[C@@](C)(C2=O)[C@@H]([C@@H](O)C(=O)OC)C1(C)C [3-O-PROPIONYLSWIETENOLIDE] | 41.7 | 18.3 | 16.6 | 53.8 (≈ 99.1 µM) | – |
| C/C=C(\C)OC(=O)[C@@H]1[C@@H]2C=C3[C@@H]4CC(=O)O[C@@H](c5ccoc5)[C@]4(C)CC[C@@H]3[C@@](C)(C2=O)[C@@H]([C@H](C(=O)OC)C(=O)Oc2ccccc2)C1(C)C [6-O-BENZOYLSWIETENINE] | 28.7 | 32.8 | 10.2 | 406 (≈ 604 µM) | – |
| COC(=O)[C@H](C(=O)Oc1ccccc1)[C@H]1C(C)(C)[C@H](O)[C@@H]2CC3=C4CC(=O)O[C@@H](c5ccoc5)[C@]4(C)CC[C@@H]3[C@@]1(C)C2=O [6-O-BENZOYLSWIETENOLIDE] | 27.1 | 43.8 | 39.5 | 73.2 (≈ 124 µM) | – |
| CCOC(=O)[C@@H](C(=O)OC)[C@H]1C(C)(C)[C@H](O)[C@@H]2CC3=C4CC(=O)O[C@@H](c5ccoc5)[C@]4(C)CC[C@@H]3[C@@]1(C)C2=O [6-O-PROPIONYLSWIETENOLIDE] | 62.6 | 21.4 | 27.1 | 57.1 (≈ 105 µM) | – |
| CC1(C)[C@H]([C@@H](O)C(=O)O)[C@]2(C)C(=O)[C@@](O)(C=C3[C@@H]4CC(=O)O[C@@H](c5ccoc5)[C@]4(C)CC[C@@H]32)[C@H]1O [DEMETHYL-3-DETIGLOYL-2-HYDROXYISOSWIETENINE] | 24.5 | 13.2 | 11.1 | > 10000 | – |
| CC1(C)[C@H](O)[C@@H]2C=C3[C@@H]4CC(=O)O[C@@H](c5ccoc5)[C@]4(C)CC[C@@H]3[C@@](C)(C2=O)[C@H]1[C@@H](O)C(=O)O [DEMETHYL-3-DETIGLOYLISOSWIETENINE] | 10.2 | 14.1 | 21.6 | 214 (≈ 454 µM) | – |
| CC1(C)[C@H](O)[C@@H]2CC3=C4CC(=O)O[C@@H](c5ccoc5)[C@]4(C)CC[C@@H]3[C@@](C)(C2=O)[C@H]1[C@@H](O)C(=O)OO [DEMETHYLISOSWIETENOLIDE] | 32.6 | 9.01 | 24 | 254 (≈ 520 µM) | – |
| CCOC(=O)[C@@H](C(=O)OC)[C@H]1C(C)(C)[C@H](C(=O)OCC)[C@@H]2CC3=C4CC(=O)O[C@@H](c5ccoc5)[C@]4(C)CC[C@@H]3[C@@]1(C)C2=O [O,O-DIPROPIONYLSWIETENOLIDE] | 52.7 | 32.7 | 20.8 | 45.5 (≈ 76 µM) | – |
| C/C=C(\C)OC(=O)[C@H]1[C@@H]2C(=O)[C@](C)([C@H]3CC[C@]4(C)[C@@H](CC(=O)O[C@H]4c4ccoc4)[C@]34O[C@@H]24)[C@@H](C(O)C(=O)OC)C1(C)C (stereo partly specified) [SWIETEMAHONIN G] | 44.3 | 32.8 | 48.1 | 13.8 (≈ 23.6 µM) | – |
